Molecular target: T1, GPR158 S266A mutant (Homo sapiens, UniProt Q5T848, S266A)
T1 construct: RGS7/Gβ5 co-expressed in the GAP BRET row only
T1 sequence (Q5T848 24-1215 S266A): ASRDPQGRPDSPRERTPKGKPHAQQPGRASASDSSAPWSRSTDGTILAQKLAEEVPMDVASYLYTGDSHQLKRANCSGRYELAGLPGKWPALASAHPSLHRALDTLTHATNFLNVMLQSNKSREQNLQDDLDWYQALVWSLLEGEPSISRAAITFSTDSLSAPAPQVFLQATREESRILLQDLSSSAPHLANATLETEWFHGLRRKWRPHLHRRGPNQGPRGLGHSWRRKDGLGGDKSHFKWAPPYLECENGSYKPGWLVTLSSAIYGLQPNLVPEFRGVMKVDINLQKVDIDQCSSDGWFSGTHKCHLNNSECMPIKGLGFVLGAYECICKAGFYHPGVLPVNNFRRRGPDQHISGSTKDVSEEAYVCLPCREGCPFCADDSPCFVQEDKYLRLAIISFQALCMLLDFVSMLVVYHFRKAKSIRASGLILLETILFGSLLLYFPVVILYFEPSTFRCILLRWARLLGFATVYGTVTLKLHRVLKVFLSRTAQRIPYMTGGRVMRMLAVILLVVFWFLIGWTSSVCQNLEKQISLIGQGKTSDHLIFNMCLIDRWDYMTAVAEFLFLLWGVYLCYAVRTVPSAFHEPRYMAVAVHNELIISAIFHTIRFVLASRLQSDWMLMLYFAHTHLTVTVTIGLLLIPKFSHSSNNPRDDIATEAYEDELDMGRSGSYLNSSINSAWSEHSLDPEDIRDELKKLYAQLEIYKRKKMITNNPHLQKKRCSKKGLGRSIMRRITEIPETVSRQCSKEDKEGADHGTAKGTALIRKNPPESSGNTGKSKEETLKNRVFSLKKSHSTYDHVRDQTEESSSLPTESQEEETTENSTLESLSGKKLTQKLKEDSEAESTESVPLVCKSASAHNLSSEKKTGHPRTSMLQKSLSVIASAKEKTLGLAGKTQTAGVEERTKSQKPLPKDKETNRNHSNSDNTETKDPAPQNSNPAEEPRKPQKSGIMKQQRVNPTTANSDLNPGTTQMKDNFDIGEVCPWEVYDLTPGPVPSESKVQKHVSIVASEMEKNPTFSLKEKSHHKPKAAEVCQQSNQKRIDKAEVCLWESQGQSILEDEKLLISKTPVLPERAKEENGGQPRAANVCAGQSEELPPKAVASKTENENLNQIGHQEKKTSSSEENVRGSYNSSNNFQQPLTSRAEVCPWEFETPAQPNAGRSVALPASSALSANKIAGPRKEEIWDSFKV
Assay: Radioligand binding assay on GPR158 mutant S266A
Excerpt: FIGS. 11A-11G. Probing Cache domain of GPR158 as a ligand binding site A) Computational docking of glycine into putative ligand binding pocket on GPR158 Cache domain. Glycine and directly interacting residues are shown as sticks. Hydrogen bonds and van der Waals interactions are shown as dotted lines. B) Diagram showing interactions in the docked model of glycine against GPR158 Cache domain. Hydrogen bonds are shown as dashed lines, van der Waals interactions are shown as intersecting semicircles, and the secondary structural context of Ser266 and Tyr269 is shown as an arc. Dagger indicates a residue implicated in glycine binding in 11A. C) Radioligand binding assay of ^3H-glycine in cells expressing GPR158 mutants. Data shown mean±s.e.m. of 3 independent experiments, *p<0.05, ns=p>0.05 one-way ANOVA. D) Functional evaluation of GPR158 mutants in GAP BRET assay. Error bars are mean±s.e.m. of 3 independent experiments in triplicate. *p<0.05, **p<0.01, ***p<0.001, ****p<0.0001, ns=p>0.05, two-way ANOVA Columns with no fill (Ctrl), columns with angled-line fill (Glycine) E) Quantification of glycine inhibitory effect on kGAP normalized to the effect seen with WT receptor. […]
Whole cell binding was performed using cDNA of GPR158-venus or each GPR158-venus mutant or empty pcDNA3.1+ for ctrl cells. […] Finally radioactivity was measured using the liquid scintillation analyzer Tri-Carb 4910 TR.

- glycine binding: normally bind glycine
SMILES: NCC(=O)O [glycine]

Source: patent US20260376293A1, “METHODS FOR STUDYING GPR158 PHARMACOLOGY AND IDENTIFICATION OF ITS LIGANDS” (UNIVERSITY OF FLORIDA RESEARCH FOUNDATION, INCORPORATED, priority 2022, published 2026)
